# Molecular target: PD-L1 His protein / PD-1 Fc protein (Homo sapiens, UniProt Q9NZQ7)
# Experiment: HTRF Assay (PD-1/PD-L1 interaction)
# Assay type: binding
# Conditions: PD-L1 His 6 nM, PD-1 Fc 6 nM
# Method: PD-L1 His protein was prepared and added at the final concentration of 6 nM in the White opaque 384 well plate (Corning cat #3824BC). PD-L1 small molecule inhibitors were diluted by 3-fold starting from 20 μM and a final concentration of 0.001 μM and added to the well. PD-1 Fc protein was added at the final concentration of 6 nM. PD-L1 His protein, PD-L1 small molecule inhibitors, and PD1 Fc proteins were added to the well in this order, with each 5 μl volume, and were incubated for 15 minutes at room temperature. PAb anti-Human IgG-XL665 (Cisbio, cat #61HFCXLA) and Mab anti-6HIS Tb cryptate Gold (Cisbio, cat #61HI2TLA) were mixed at 6.7 nM and 0.35 nM respectively, and total 5 μl volume of mixture was added to the well and incubated at room temperature for 1 hour. The plate was read using PerkinElmer Envision plate reader and data was analyzed by Prism 6 software.
# PD-L1 His protein / PD-1 Fc protein, sequence (Q9NZQ7 19-238 limits assumed): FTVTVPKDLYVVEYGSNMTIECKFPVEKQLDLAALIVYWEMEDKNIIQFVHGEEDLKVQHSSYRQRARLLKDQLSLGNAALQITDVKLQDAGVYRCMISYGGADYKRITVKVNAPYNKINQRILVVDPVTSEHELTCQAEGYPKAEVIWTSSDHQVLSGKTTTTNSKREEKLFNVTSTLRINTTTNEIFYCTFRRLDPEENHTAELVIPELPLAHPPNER
row,SMILES,IC50 [nM]
1,"COc1nc(-c2cccc(-c3cccc(-c4ccn5c(=O)c(CNCC(O)C6CC6)cnc5c4)c3Cl)c2Cl)ccc1CNC[C@@H]1CCC(=O)N1 (mixture of isomers) [Example 274, 3-(((2-Cyclopropyl-2-hydroxyethyl)amino)methyl)-8-(2,2′-dichloro-3′-(6-methoxy-5-(((((S)-5-oxopyrrolidin-2-yl)methyl)amino)methyl)pyridin-2-yl)-[1,1′-biphenyl]-3-yl)-4H-pyrido[1,2-a]pyrimidin-4-one]",65
2,"COc1nc(-c2cccc(-c3cccc(-c4ccn5c(=O)c(CNCC(C)(O)C6CC6)cnc5c4)c3Cl)c2Cl)ccc1CNC[C@@H]1CCC(=O)N1 (mixture of isomers) [Example 280, 3-(((2-cyclopropyl-2-hydroxypropyl)amino)methyl)-8-(2,2′-dichloro-3′-(6-methoxy-5-(((((S)-5-oxopyrrolidin-2-yl)methyl)amino)methyl)pyridin-2-yl)-[1,1′-biphenyl]-3-yl)-4H-pyrido[1,2-a]pyrimidin-4-one]",37
3,"COc1nc(-c2cccc(-c3cccc(-c4ccc5c(c4)OCCC5NC[C@@H]4CCC(=O)N4)c3Cl)c2Cl)ccc1CNC[C@@H]1CCC(=O)N1 (mixture of isomers) [Example 326, (5S)-5-((((6-(2,2′-Dichloro-3′-(4-((((S)-5-oxopyrrolidin-2-yl)methyl)amino)chroman-7-yl)-[1,1′-biphenyl]-3-yl)-2-methoxypyridin-3-yl)methyl)amino)methyl)pyrrolidin-2-one]",24
4,"COc1nc(-c2cccc(-c3cccc(-c4ccc5c(n4)N(C)CCC5NC[C@@H]4CCC(=O)N4)c3Cl)c2Cl)ccc1CNC[C@@H]1CCC(=O)N1 (mixture of isomers) [Example 51, (5S)-5-(((7-(2,2′-Dichloro-3′-(6-methoxy-5-(((((S)-5-oxopyrrolidin-2-yl)methyl)amino)methyl)pyridin-2-yl)-[1,1′-biphenyl]-3-yl)-1-methyl-1,2,3,4-tetrahydro-1,8-naphthyridin-4-yl)amino)methyl)pyrrolidin-2-one]",2.9
5,"COc1nc(-c2cccc(-c3cccc(-c4ccc5c(n4)N(C)CCC5NC[C@@H]4CCC(=O)N4)c3Cl)c2Cl)cnc1CNC[C@@H]1CCC(=O)N1 (mixture of isomers) [Example 56, (5S)-5-(((7-(2,2′-Dichloro-3′-(6-methoxy-5-(((((S)-5-oxopyrrolidin-2-yl)methyl)amino)methyl)pyrazin-2-yl)-[1,1′-biphenyl]-3-yl)-1-methyl-1,2,3,4-tetrahydro-1,8-naphthyridin-4-yl)amino)methyl)pyrrolidin-2-one]",0.7
6,"Cc1c(-c2ccn3c(=O)c(CNC[C@@H]4CCC(=O)N4)cnc3c2)cccc1-c1cccc(-c2ccc3c(n2)N(C)CCC3NC[C@@H]2CCC(=O)N2)c1Cl (mixture of isomers) [Example 68, 8-(2′-Chloro-2-methyl-3′-(8-methyl-5-((((S)-5-oxopyrrolidin-2-yl)methyl)amino)-5,6,7,8-tetrahydro-1,8-naphthyridin-2-yl)-[1,1′-biphenyl]-3-yl)-3-(((((S)-5-oxopyrrolidin-2-yl)methyl)amino)methyl)-4H-pyrido[1,2-a]pyrimidin-4-one]",11
7,"COc1nc(-c2cccc(-c3cccc(-c4ccc5c(n4)N(C)CCC5NCc4cncc(F)c4)c3Cl)c2Cl)ccc1CNC[C@@H]1CCC(=O)N1 (mixture of isomers) [Example 91, (5S)-5-((((6-(2,2′-Dichloro-3′-(5-(((5-fluoropyridin-3-yl)methyl)amino)-8-methyl-5,6,7,8-tetrahydro-1,8-naphthyridin-2-yl)-[1,1′-biphenyl]-3-yl)-2-methoxypyridin-3-yl)methyl)amino)methyl)pyrrolidin-2-one]",180
8,"COc1nc(-c2cccc(-c3cccc(-c4ccn5c(=O)c(CNC[C@H]6C[C@H]6CO)cnc5c4)c3Cl)c2Cl)ccc1CNC[C@@H]1CCC(=O)N1 (racemic) [Example 225, 8-(2,2′-dichloro-3′-(6-methoxy-5-(((((S)-5-oxopyrrolidin-2-yl)methyl)-amino)-methyl)-pyridin-2-yl)-[1,1′-biphenyl]-3-yl)-3-(((((1S,2R)-2-(hydroxymethyl)-cyclopropyl)methyl)amino)methyl)-4H-pyrido[1,2-a]pyrimidin-4-one]",0.2
9,"COc1nc(-c2cccc(-c3cccc(-c4ccc5c(n4)CCCC5NC[C@@H]4CCC(=O)N4)c3Cl)c2Cl)ccc1CNC[C@@H]1CCC(=O)N1 (mixture of isomers) [Example 235, (5S)-5-((((6-(2,2′-Dichloro-3′-(5-((((S)-5-oxopyrrolidin-2-yl)methyl)amino)-5,6,7,8-tetrahydroquinolin-2-yl)-[1,1′-biphenyl]-3-yl)-2-methoxypyridin-3-yl)methyl)amino)methyl)pyrrolidin-2-one]",1
10,"COc1nc(-c2cccc(-c3cccc(-c4ccn5c(=O)c(CNC[C@@H]6C[C@H]6CO)cnc5c4)c3Cl)c2Cl)ccc1CNC[C@@H]1CCC(=O)N1 (racemic) [Example 245, 8-(2,2′-dichloro-3′-(6-methoxy-5-(((((S)-5-oxopyrrolidin-2-yl)-methyl)amino)-methyl)-pyridin-2-yl)-[1,1′-biphenyl]-3-yl)-3-(((((1R,2R)-2-(hydroxymethyl)-cyclopropyl)methyl)amino)-methyl)-4H-pyrido[1,2-a]pyrimidin-4-one]",2.1
11,"COc1nc(-c2cccc(-c3cccc(-c4ccc5c(n4)CCCC5NC[C@H](C)O)c3Cl)c2Cl)ccc1CNC[C@@H]1CCC(=O)N1 (mixture of isomers) [Example 390, (5S)-5-((((6-(2,2′-Dichloro-3′-(5-(((S)-2-hydroxypropyl)amino)-5,6,7,8-tetrahydroquinolin-2-yl)-[1,1′-biphenyl]-3-yl)-2-methoxypyridin-3-yl)methyl)amino)methyl)pyrrolidin-2-one]",6.5
12,"COc1nc(-c2cccc(-c3cccc(-c4cc5c(=O)n(C)c(CNCC6CC(F)(F)C(=O)N6)nn5c4)c3Cl)c2Cl)ccc1CNC[C@@H]1CCC(=O)N1 (mixture of isomers) [Example 450, 6-[2-Chloro-3-[2-chloro-3-[6-methoxy-5-[[[rac-(2S)-5-oxopyrrolidin-2-yl]methylamino]methyl]-2-pyridyl]phenyl]phenyl]-2-[[(4,4-difluoro-5-oxo-pyrrolidin-2-yl)methylamino]methyl]-3-methyl-pyrrolo[2,1-f][1,2,4]triazin-4-one]",12
13,"COc1nc(-c2cccc(-c3cccc(-c4ccc5c(n4)N(C)CCC5NC[C@@H]4CCC(=O)N4)c3Cl)c2Cl)ccc1CNC[C@@H]1CCC(=O)N1 (single isomer, unassigned) [Example 52]",0.8
14,"COc1nc(-c2cccc(-c3cccc(-c4ccc5c(n4)N(C)CCC5NC[C@@H]4CCC(=O)N4)c3Cl)c2Cl)ccc1CNC[C@@H]1CCC(=O)N1 (single isomer, unassigned) [Example 53]",1.7
15,"COc1nc(-c2cccc(-c3cccc(-c4ccn5c(=O)c(CNC6CC7(CCNC7=O)C6)cnc5c4)c3Cl)c2Cl)ccc1CNC[C@@H]1CCC(=O)N1 (single isomer, unassigned) [Example 249]",0.6
16,"COc1nc(-c2cccc(-c3cccc(-c4ccn5c(=O)c(CNC6CC7(CCNC7=O)C6)cnc5c4)c3Cl)c2Cl)ccc1CNC[C@@H]1CCC(=O)N1 (single isomer, unassigned) [Example 250]",1
17,"COc1nc(-c2cccc(-c3cccc(-c4ccn5c(=O)c(CNC6CC7(CCNC7=O)C6)cnc5c4)c3Cl)c2Cl)ccc1CNC[C@@H]1CCC(=O)N1 (single isomer, unassigned) [Example 251]",8.9
18,"Cc1c(COc2cc(OCc3cncc(C(N)=O)c3)c(CNCCO)cc2Cl)cccc1-c1cccc(-c2ccn3c(=O)c(CNCCO)cnc3c2)c1 [Example 1, 5-((4-Chloro-2-(((2-hydroxyethyl)amino)methyl)-5-((3′-(3-(((2-hydroxyethyl)amino)methyl)-4-oxo-4H-pyrido[1,2-a]pyrimidin-8-yl)-2-methyl-[1,1′-biphenyl]-3-yl)methoxy)phenoxy)methyl)nicotinamide]",2.8
19,"Cc1c(NC(=O)c2ccc(CNCCO)cn2)cccc1-c1cccc(-c2ccn3c(=O)c(CNCCO)cnc3c2)c1 [Example 2, 5-(((2-Hydroxyethyl)amino)methyl)-N-(3′-(3-(((2-hydroxyethyl)amino)methyl)-4-oxo-4H-pyrido[1,2-a]pyrimidin-8-yl)-2-methyl-[1,1′-biphenyl]-3-yl)picolinamide]",79
20,"Cc1c(COc2cc(OCc3cncc(C#N)c3)c(CNCCO)cc2Cl)cccc1-c1cccc(-c2ccn3c(=O)c(CNCCO)cnc3c2)c1C [Example 3, 5-((4-Chloro-2-(((2-hydroxyethyl)amino)methyl)-5-((3′-(3-(((2-hydroxyethyl)amino)methyl)-4-oxo-4H-pyrido[1,2-a]pyrimidin-8-yl)-2,2′-dimethyl-[1,1′-biphenyl]-3-yl)methoxy)phenoxy)methyl)nicotinonitrile]",1.2
21,"Cc1c(COc2cc(OCc3cncc(C#N)c3)c(CNCCO)cc2Cl)cccc1-c1cccc(-c2ccn3c(=O)c(CNCCO)cnc3c2)c1 [Example 4, 5-((4-Chloro-2-(((2-hydroxyethyl)amino)methyl)-5-((3′-(3-(((2-hydroxyethyl)amino)methyl)-4-oxo-4H-pyrido[1,2-a]pyrimidin-8-yl)-2-methyl-[1,1′-biphenyl]-3-yl)methoxy)phenoxy)methyl)nicotinonitrile]",2
22,"Cc1c(COc2cc(OCc3cncc(C#N)c3)c(CNCCO)cc2Cl)cccc1-c1cccc(-n2cnc3cc(CNCCO)ccc3c2=O)c1 [Example 5, 5-((4-Chloro-2-(((2-hydroxyethyl)amino)methyl)-5-((3′-(7-(((2-hydroxyethyl)amino)methyl)-4-oxoquinazolin-3(4H)-yl)-2-methyl-[1,1′-biphenyl]-3-yl)methoxy)phenoxy)methyl)nicotinonitrile]",150
